Assay in all cases: relative viability (nuclei count vs DMSO), 5 days (fraction); higher = more cells survive
Compound in assay [1]: O=C(O)c1ccc2c(c1)nc(Nc1cccc(Cl)c1)c1ccncc12 [Silmitasertib] + CS(=O)(=O)N1CCN(Cc2cc3nc(-c4cccc5[nH]ncc45)nc(N4CCOCC4)c3s2)CC1 [Pictilisib] (partner 1 µM)
In short, it runs like this:
(§1)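 Dosing by pin tool came one day after lung cancer cell lines were seeded in 1536-well plates, using either one drug or a fixed anchor-drug dose plus five library-drug doses (not always all listed) in √10 steps. After 5 days, nuclei were counted on 4× images. Relative viability is treated-well nuclei count divided by vehicle-well nuclei count, and values are medians of duplicate plates.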

Compound in assay [2]: O=C(O)c1ccc2c(c1)nc(Nc1cccc(Cl)c1)c1ccncc12 [Silmitasertib] + CC(=O)Nc1cccc(-n2c(=O)n(C3CC3)c(=O)c3c(Nc4ccc(I)cc4F)n(C)c(=O)c(C)c32)c1 [Trametinib] (partner 0.02 µM)
The gist of the method: as §1

Compound in assay [3]: O=C(O)c1ccc2c(c1)nc(Nc1cccc(Cl)c1)c1ccncc12 [Silmitasertib] + CC(=O)c1c(C)c2cnc(Nc3ccc(N4CCNCC4)cn3)nc2n(C2CCCC2)c1=O [Palbociclib] (partner 0.5 µM)
In short, it runs like this: as §1

Compound in assay [4]: O=C(O)c1ccc2c(c1)nc(Nc1cccc(Cl)c1)c1ccncc12 [Silmitasertib] + CS(=O)(=O)CCNCc1ccc(-c2ccc3ncnc(Nc4ccc(OCc5cccc(F)c5)c(Cl)c4)c3c2)o1 [Lapatinib] (partner 2 µM)
In short, it runs like this:
as §1

Compound in assay [5]: O=C(O)c1ccc2c(c1)nc(Nc1cccc(Cl)c1)c1ccncc12 [Silmitasertib] + CCNC(=O)c1noc(-c2cc(C(C)C)c(O)cc2O)c1-c1ccc(CN2CCOCC2)cc1 [Luminespib] (partner 0.01 µM)
In short, it runs like this:
as §1

With SK-MES-1, the relative viability in assay [1] (first compound 0.04 µM) is 0.412; in assay [1] (first compound 0.4 µM) it was 0.439; in assay [1] (first compound 1.265 µM), 0.456; in assay [1] (first compound 4 µM), 0.373; in assay [2] (first compound 0.04 µM) it was 0.589; in assay [2] (first compound 0.4 µM), 0.477. Also, the relative viability in assay [2] (first compound 1.265 µM) stood at 0.535; in assay [2] (first compound 4 µM), 0.469; in assay [3] (first compound 0.04 µM), 0.359; in assay [3] (first compound 0.4 µM), 0.322; in assay [3] (first compound 1.265 µM), 0.253; in assay [3] (first compound 4 µM), 0.275. Further, the relative viability came out at 0.442 in assay [4] (first compound 0.04 µM); 0.594 in assay [4] (first compound 0.4 µM); 0.536 in assay [4] (first compound 1.265 µM); 0.429 in assay [4] (first compound 4 µM); 0.821 in assay [5] (first compound 0.04 µM); 0.801 in assay [5] (first compound 0.4 µM). The relative viability in assay [5] (first compound 1.265 µM) stood at 0.397; in assay [5] (first compound 4 µM) it was 0.213.

For the cell line SW 1573, the relative viability stood at 0.561 in assay [1] (first compound 0.04 µM); 0.459 in assay [1] (first compound 0.4 µM); 0.462 in assay [1] (first compound 1.265 µM); 0.484 in assay [1] (first compound 4 µM); 0.529 in assay [2] (first compound 0.04 µM); 0.54 in assay [2] (first compound 0.4 µM). Moreover, the relative viability in assay [2] (first compound 1.265 µM) turned out to be 0.478; in assay [2] (first compound 4 µM), 0.439; in assay [3] (first compound 0.04 µM), 0.415; in assay [3] (first compound 0.4 µM) it was 0.373; in assay [3] (first compound 1.265 µM) it was 0.309; in assay [3] (first compound 4 µM), 0.337. For the same cell line, the relative viability in assay [4] (first compound 0.04 µM) came out at 1.1; in assay [4] (first compound 0.4 µM), 1.07; in assay [4] (first compound 1.265 µM), 1.11; in assay [4] (first compound 4 µM) it was 0.67; in assay [5] (first compound 0.04 µM) it was 0.243; in assay [5] (first compound 0.4 µM), 0.215. For the same cell line, the relative viability is 0.179 in assay [5] (first compound 1.265 µM) and 0.164 in assay [5] (first compound 4 µM).

As to UMC-11, the relative viability in assay [1] (first compound 0.04 µM) came to 0.992; in assay [1] (first compound 0.4 µM), 0.903; in assay [1] (first compound 1.265 µM) it was 0.652; in assay [1] (first compound 4 µM), 0.436; in assay [2] (first compound 0.04 µM) it was 0.73; in assay [2] (first compound 0.4 µM), 0.65. Further, the relative viability in assay [2] (first compound 1.265 µM) came to 0.353; in assay [2] (first compound 4 µM), 0.403; in assay [3] (first compound 0.04 µM), 0.364; in assay [3] (first compound 0.4 µM), 0.344; in assay [3] (first compound 1.265 µM), 0.347; in assay [3] (first compound 4 µM), 0.379. For the same cell line, the relative viability in assay [4] (first compound 0.04 µM) worked out at 1.14; in assay [4] (first compound 0.4 µM), 0.949; in assay [4] (first compound 1.265 µM) it was 0.965; in assay [4] (first compound 4 µM), 0.359; in assay [5] (first compound 0.04 µM), 1.2; in assay [5] (first compound 0.4 µM), 1.1. Also, the figures for the relative viability in assay [5] (first compound 1.265 µM) and in assay [5] (first compound 4 µM) were 0.861 and 0.613, respectively.

The record behind these values is the supplement of paper PMC10307832.
